Legend:
D1 dopamine receptors = molecular target: T1, D1 dopamine receptors (Rattus norvegicus, UniProt P18901); assay: D1 dopamine receptor binding: inhibition of tritiated SCH 23390 binding, rat striatal samples; design: species or system rat (male Charles River CD rats); conditions: rat striatum, tritiated SCH 23390, pH 7.4, 37° C., 30 minutes
T1 construct: Striatal samples from the brains of male Charles River CD rats; from tissue; host or cells: striatum of male Charles River CD rats (washed membrane pellet)
Description: (§1) Striatal samples from the brains of male Charles River CD rats weighing between 140-250 g were homogenised in ice-cold 50 mM Tris-HCl buffer (pH 7.4 when measured at 25° C. for D1 binding assays and pH 7.7 when measured at 25° C. for D2 binding assays) and centrifuged for 10 minutes (at 21,000 g when used for D1binding assay and 40,000 g when used for D2binding assays). The pellet was resuspended in the same buffer, again centrifuged and the final pellet stored at -80° C. Before each test the pellet was resuspended in 50 mM Tris-HCl buffer containing 120 mM NaCl, 5 mM KCl, 2 mM CaCl2 and 1 mM MgCl2 at pH 7.4 for the D1 binding assays and at pH 7.7 with the addition of 6 mM ascorbic acid for the D2 binding assays. Aliquots of this suspension were then added to tubes containing the ligand and either the compound under test or buffer. For the D1 binding assays the ligand was tritiated SCH 23390 and the mixture was incubated at 37° C. for 30 minutes before the incubation was terminated by rapid filtration. For the D2 binding assays the ligand was tritiated (S)-sulpiride and the mixture was incubated at 4° C. for 40 minutes before the incubation was terminated by rapid filtration. Non-specific binding was determined experimentally by the addition of saturating concentrations of chloropromazine or spiroperidol for D1 and D2 receptors respectively.
(§2) The filters were washed with ice-cold Tris-HCl buffer and dried. The filters were punched out on to vials containing scintillation fluid and were left for about 20 hours before being counted by scintillation spectrophotometry. Displacement curves were produced over a range of concentrations of the compound under test and the concentration which gave a 50% inhibition of specific binding (IC50) obtained from the curve. The inhibition coefficient Ki was then calculated using the formula [formula] in which [ligand] is the concentration of the tritiated ligand used and KD is the equilibrium dissociation constant for the ligand.
(§3) In some cases Ki values for D2 binding were estimated from single concentration data by the application of the Langmuir adsorption isotherm equation. These cases are indicated by an "E" in the last two columns of Table I. In other cases it was not possible to determine or estimate the Ki and the Ki value is given as greater than (>) that which would result from the application of the above formula to the highest concentration which displaced ≤50% of the ligand.

D2 dopamine receptors = molecular target: T2, D2 dopamine receptors (Rattus norvegicus, UniProt P61169); assay: D2 dopamine receptor binding: inhibition of tritiated (S)-sulpiride binding, rat striatal samples; design: species or system rat (male Charles River CD rats); conditions: for Ki: rat striatum, tritiated (S)-sulpiride, pH 7.7, 4° C., 40 minutes, > = from highest concentration which displaced ≤50% of the ligand, read-out: Ki for D2 binding; for Ki for D2 / Ki for D1: ratio to two significant figures
T2 construct: Striatal samples from the brains of male Charles River CD rats; from tissue; host or cells: striatum of male Charles River CD rats (washed membrane pellet)
Description: as §1, §2, §3

T2 sequence (P61169 whole entry): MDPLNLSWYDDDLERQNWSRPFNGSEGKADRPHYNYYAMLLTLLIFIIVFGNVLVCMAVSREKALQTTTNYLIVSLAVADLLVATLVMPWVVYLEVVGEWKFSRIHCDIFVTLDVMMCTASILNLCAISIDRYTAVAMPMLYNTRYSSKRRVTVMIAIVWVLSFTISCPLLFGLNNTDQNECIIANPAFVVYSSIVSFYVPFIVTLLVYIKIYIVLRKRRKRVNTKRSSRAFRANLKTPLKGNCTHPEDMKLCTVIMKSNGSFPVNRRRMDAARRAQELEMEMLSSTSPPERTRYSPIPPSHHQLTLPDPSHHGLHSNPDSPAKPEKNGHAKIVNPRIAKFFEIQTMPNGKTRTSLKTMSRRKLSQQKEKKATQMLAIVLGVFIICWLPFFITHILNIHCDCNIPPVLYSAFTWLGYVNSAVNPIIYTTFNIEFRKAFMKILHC
T1 sequence (P18901 whole entry): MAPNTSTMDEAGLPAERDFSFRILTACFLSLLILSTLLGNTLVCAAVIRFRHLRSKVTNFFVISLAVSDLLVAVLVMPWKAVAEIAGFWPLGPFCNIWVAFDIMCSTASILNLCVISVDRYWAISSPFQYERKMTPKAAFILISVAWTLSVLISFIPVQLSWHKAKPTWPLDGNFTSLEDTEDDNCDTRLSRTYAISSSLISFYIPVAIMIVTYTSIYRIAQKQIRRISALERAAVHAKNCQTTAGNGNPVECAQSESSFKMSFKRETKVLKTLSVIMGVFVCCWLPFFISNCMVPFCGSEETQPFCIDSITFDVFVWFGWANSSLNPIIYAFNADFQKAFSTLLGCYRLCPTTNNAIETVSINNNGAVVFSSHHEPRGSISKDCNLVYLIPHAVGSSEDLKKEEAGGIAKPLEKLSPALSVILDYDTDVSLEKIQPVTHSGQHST

SMILES	Ki (D1 dopamine receptors)	Ki (D2 dopamine receptors)	Ki for D2 / Ki for D1 (D2 dopamine receptors)
CN1CCc2cc(O)c(O)cc2C1C1(c2ccccc2Br)CCC1 (single isomer, unassigned; (+)) [Example 60, (+)-1-[1-(2-bromo-phenyl)cyclobutyl] -6,7-dihydroxy-2-methyl-1,2,3,4-tetrahydroisoquinoline]	0.0028 µM	2 µM	710
CN1CCc2cc(F)c(O)cc2C1C1(c2ccccc2Cl)CCC1 (single isomer, unassigned; (+)) [Example 64, (+)-1-[1-(2-chlorophenyl)cyclobutyl]-6-fluoro-7-hydroxy-2-methyl-1,2,3,4-tetrahydroisoquinoline]	0.0024 µM	4.8 µM	2000
COc1cc2c(cc1O)C(C1(c3ccccc3Cl)CC1)N(C)CC2 (single isomer, unassigned; (+)) [Example 77, (+)-1-[1-(2-chlorophenyl)cyclopropyl]-7-hydroxy-6-methoxy-2-methyl-1,2,3,4-tetrahydroisoquinoline]	0.00028 µM	0.9 µM	3200
Cc1cc2c(cc1O)C(C1(c3ccccc3Cl)CC1)N(C)CC2 (single isomer, unassigned; (+)) [Example 80, (+)-1-[1-(2-chlorophenyl)cyclopropyl]-7-hydroxy-2,6-dimethyl-1,2,3,4-tetrahydroisoquinoline]	0.00067 µM	0.37 µM	550
CN1CCc2cc(Cl)c(O)cc2C1C1(c2ccccc2)CCC1 (single isomer, unassigned; (-)) [Example 59, (-)-6-chloro-7-hydroxy-2-methyl-1-(1-phenylcyclobutyl)-1,2,3,4-tetrahydroisoquinoline]	0.0052 µM	3.2 µM	620
CN1CCc2cc(O)c(O)cc2C1C1(c2ccccc2Br)CCC1 (stereo not drawn) [Example 1, 1-[1-(2-bromophenyl)cyclobutyl]-6,7-dihydroxy-2-methyl-1,2,3,4-tetrahydroisoquinoline]	0.004 µM	1 µM	250
CN1CCc2cc(O)c(O)cc2C1C1(c2ccc(F)cc2)CCC1 (stereo not drawn) [Example 3, 1-[1-(4-fluorophenyl)cyclobutyl]-6,7-dihydroxy-2-methyl-1,2,3,4-tetrahydroisoquinoline]	0.022 µM	6100 µM	280000
Cc1ccccc1C1(C2c3cc(O)c(O)cc3CCN2C)CCC1 (stereo not drawn) [Example 4, 6,7-dihydroxy-2-methyl-1-[1-(o-tolyl)cyclobutyl]-1,2,3,4-tetrahydroisoquinoline]	0.029 µM	260 µM	9000
CN1CCc2cc(F)c(O)cc2C1C1(c2ccc(Br)cc2)CCC1 (stereo not drawn) [Example 6, 1-[1-(4-bromophenyl)cyclobutyl]-6-fluoro-7-hydroxy-2-methyl-1,2,3,4-tetrahydroisoquinoline]	0.003 µM	41 µM	14000
CN1CCc2cc(O)c(O)cc2C1C1(c2ccccc2F)CCC1 (stereo not drawn) [Example 7, 1-[1-(2-fluorophenyl)cyclobutyl]-6,7-dihydroxy-2-methyl-1,2,3,4-tetrahydroisoquinoline]	0.021 µM	2.9 µM	140
CN1CCc2cc(O)c(O)cc2C1C1(c2ccccc2)CCCC1 (stereo not drawn) [Example 15, 6,7-dihydroxy-2-methyl-1-(1-phenylcyclopentyl)-1,2,3,4-tetrahydroisoquinoline]	0.2 µM	> 5 µM	> 25
CN1CCc2cc(O)c(O)cc2C1C1(c2ccc(Cl)cc2)CCCCC1 (stereo not drawn) [Example 16, 1-[1-(4-chlorophenyl)cyclohexyl]-6,7-dihydroxy-2-methyl-1,2,3,4-tetrahydroisoquinoline]	0.18 µM	3.2 µM	18

The next lines start with the values.

Ki (D1 dopamine receptors)	Ki (D2 dopamine receptors)	Ki for D2 / Ki for D1 (D2 dopamine receptors)	SMILES
0.00038 µM	0.41 µM	1100	CN1CCc2cc(F)c(O)cc2C1C1(c2ccccc2Cl)CC1 (single isomer, unassigned; (+)) [Example 62, (+)-1-[1-(2-chlorophenyl)cyclopropyl]-6-fluoro-7-hydroxy-2-methyl-1,2,3,4-tetrahydroisoquinoline]
0.00028 µM	0.9 µM	3200	COc1cc2c(cc1O)C(C1(c3ccccc3Cl)CC1)N(C)CC2 (single isomer, unassigned; (+)) [Example 85, (+)-1-[1-(2-chlorophenyl)cyclopropyl]-7-hydroxy-6-methoxy-2-methyl-1,2,3,4-tetrahydroisoquinoline]
0.0072 µM	12 µM	1700	CN1CCc2cc(O)c(O)cc2C1C1(c2ccccc2Cl)CCC1 (stereo not drawn) [Example 2, 1-[1-(2-chlorophenyl)cyclobutyl]-6,7-dihydroxy-2-methyl-1,2,3,4-tetrahydroisoquinoline]
0.0083 µM	32 µM	3900	CN1CCc2cc(F)c(O)cc2C1C1(c2ccc(Cl)cc2)CCC1 (stereo not drawn) [Example 5, 1-[1-(4-chlorophenyl)cyclobutyl]-6-fluoro-7-hydroxy-2-methyl-1,2,3,4-tetrahydroisoquinoline]
0.31 µM	> 5 µM	> 16	CN1CCc2cc(O)c(O)cc2C1C1(c2cccc(C(F)(F)F)c2)CCC1 (stereo not drawn) [Example 8, 6,7-dihydroxy-2-methyl-1-[1-(3-trifluoromethylphenyl)cyclobutyl]-1,2,3,4-tetrahydroisoquinoline]
0.0019 µM	1.8 µM	950	CN1CCc2cc(F)c(O)cc2C1C1(c2ccc(Cl)cc2Cl)CCC1 (stereo not drawn) [Example 9, 1-[1-(2,4-dichlorophenyl)cyclobutyl]-6-fluoro-7-hydroxy-2-methyl-1,2,3,4-tetrahydroisoquinoline]
0.0016 µM	2.5 µM	1600	Cc1cc2c(cc1O)C(C1(c3ccccc3Cl)CCC1)N(C)CC2 (stereo not drawn) [Example 10, 1-[1-(2-chlorophenyl)cyclobutyl]-7-hydroxy-2,6-dimethyl-1,2,3,4-tetrahydroisoquinoline]
0.15 µM	3.5 µM	23	CN1CCc2cc(-c3ccccc3)c(O)cc2C1C1(c2ccccc2Cl)CCC1 (stereo not drawn) [Example 11, 1-[1-(2-chlorophenyl)cyclobutyl]-7-hydroxy-2-methyl-6-phenyl-1,2,3,4-tetrahydroisoquinoline]
0.0014 µM	0.71 µM	510	CN1CCc2ccc(O)cc2C1C1(c2ccccc2Cl)CC1 (stereo not drawn) [Example 12, 1-(1-(2-chlorophenyl)cyclopropyl)-7-hydroxy-2-methyl-1,2,3,4-tetrahydroisoquinoline]
0.044 µM	3.7 µM	84	CN1CCc2cc(O)c(O)cc2C1C1(c2ccc(Cl)cc2)CC1 (stereo not drawn) [Example 13, 1-[1-(4-chlorophenyl)cyclopropyl]-6,7-dihydroxy-2-methyl-1,2,3,4-tetrahydroisoquinoline]
0.12 µM	4.8 µM	40	CN1CCc2cc(O)c(O)cc2C1C1(c2ccc(Cl)cc2)CCCC1 (stereo not drawn) [Example 14, 1-[1-(4-chlorophenyl)cyclopentyl]-6,7-dihydroxy-2-methyl-1,2,3,4-tetrahydroisoquinoline]

Source: patent US5519034A, “Tetraisoquinoline compounds which have useful pharmaceutical utility” (The Boots Company PLC, priority 1991, dated 1996)
